Experimental data from patent publication US8697739B2, “Bicyclic acetyl-CoA carboxylase inhibitors and uses thereof” (Novartis AG, priority 2010, dated 2014).

Target: T1, human acetyl-CoA carboxylase 2 (ACC2) (Homo sapiens, UniProt O00763)
T1 construct: The cDNA encoding amino acids 144 to 2458 of human acetyl-CoA carboxylase 2; made in house; host or cells: Sf9 insect cells (baculovirus, pFastBac1)
Assay: Acetyl-CoA carboxylase enzyme assay (malonyl-CoA formation by LC/MS/MS)
Type: biochemical
Conditions: recombinant human ACC2 (aa 144-2458); read-out: IC50 ACC2
Summary of the method: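 Malonyl-CoA formation was read by LC/MS/MS MRM against a [13C3]-malonyl-CoA internal standard, after acetic acid quench. The enzyme was baculovirus/Sf9-expressed human ACC2 residues 144–2458, given 15 minutes room-temperature compound preincubation in HEPES pH 7.5 buffer with MgCl2, citrate and DTT. Substrate solution held 50 μM acetyl-CoA, 120 μM ATP and 2 mM KHCO3.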

T1 sequence (O00763 144-2458): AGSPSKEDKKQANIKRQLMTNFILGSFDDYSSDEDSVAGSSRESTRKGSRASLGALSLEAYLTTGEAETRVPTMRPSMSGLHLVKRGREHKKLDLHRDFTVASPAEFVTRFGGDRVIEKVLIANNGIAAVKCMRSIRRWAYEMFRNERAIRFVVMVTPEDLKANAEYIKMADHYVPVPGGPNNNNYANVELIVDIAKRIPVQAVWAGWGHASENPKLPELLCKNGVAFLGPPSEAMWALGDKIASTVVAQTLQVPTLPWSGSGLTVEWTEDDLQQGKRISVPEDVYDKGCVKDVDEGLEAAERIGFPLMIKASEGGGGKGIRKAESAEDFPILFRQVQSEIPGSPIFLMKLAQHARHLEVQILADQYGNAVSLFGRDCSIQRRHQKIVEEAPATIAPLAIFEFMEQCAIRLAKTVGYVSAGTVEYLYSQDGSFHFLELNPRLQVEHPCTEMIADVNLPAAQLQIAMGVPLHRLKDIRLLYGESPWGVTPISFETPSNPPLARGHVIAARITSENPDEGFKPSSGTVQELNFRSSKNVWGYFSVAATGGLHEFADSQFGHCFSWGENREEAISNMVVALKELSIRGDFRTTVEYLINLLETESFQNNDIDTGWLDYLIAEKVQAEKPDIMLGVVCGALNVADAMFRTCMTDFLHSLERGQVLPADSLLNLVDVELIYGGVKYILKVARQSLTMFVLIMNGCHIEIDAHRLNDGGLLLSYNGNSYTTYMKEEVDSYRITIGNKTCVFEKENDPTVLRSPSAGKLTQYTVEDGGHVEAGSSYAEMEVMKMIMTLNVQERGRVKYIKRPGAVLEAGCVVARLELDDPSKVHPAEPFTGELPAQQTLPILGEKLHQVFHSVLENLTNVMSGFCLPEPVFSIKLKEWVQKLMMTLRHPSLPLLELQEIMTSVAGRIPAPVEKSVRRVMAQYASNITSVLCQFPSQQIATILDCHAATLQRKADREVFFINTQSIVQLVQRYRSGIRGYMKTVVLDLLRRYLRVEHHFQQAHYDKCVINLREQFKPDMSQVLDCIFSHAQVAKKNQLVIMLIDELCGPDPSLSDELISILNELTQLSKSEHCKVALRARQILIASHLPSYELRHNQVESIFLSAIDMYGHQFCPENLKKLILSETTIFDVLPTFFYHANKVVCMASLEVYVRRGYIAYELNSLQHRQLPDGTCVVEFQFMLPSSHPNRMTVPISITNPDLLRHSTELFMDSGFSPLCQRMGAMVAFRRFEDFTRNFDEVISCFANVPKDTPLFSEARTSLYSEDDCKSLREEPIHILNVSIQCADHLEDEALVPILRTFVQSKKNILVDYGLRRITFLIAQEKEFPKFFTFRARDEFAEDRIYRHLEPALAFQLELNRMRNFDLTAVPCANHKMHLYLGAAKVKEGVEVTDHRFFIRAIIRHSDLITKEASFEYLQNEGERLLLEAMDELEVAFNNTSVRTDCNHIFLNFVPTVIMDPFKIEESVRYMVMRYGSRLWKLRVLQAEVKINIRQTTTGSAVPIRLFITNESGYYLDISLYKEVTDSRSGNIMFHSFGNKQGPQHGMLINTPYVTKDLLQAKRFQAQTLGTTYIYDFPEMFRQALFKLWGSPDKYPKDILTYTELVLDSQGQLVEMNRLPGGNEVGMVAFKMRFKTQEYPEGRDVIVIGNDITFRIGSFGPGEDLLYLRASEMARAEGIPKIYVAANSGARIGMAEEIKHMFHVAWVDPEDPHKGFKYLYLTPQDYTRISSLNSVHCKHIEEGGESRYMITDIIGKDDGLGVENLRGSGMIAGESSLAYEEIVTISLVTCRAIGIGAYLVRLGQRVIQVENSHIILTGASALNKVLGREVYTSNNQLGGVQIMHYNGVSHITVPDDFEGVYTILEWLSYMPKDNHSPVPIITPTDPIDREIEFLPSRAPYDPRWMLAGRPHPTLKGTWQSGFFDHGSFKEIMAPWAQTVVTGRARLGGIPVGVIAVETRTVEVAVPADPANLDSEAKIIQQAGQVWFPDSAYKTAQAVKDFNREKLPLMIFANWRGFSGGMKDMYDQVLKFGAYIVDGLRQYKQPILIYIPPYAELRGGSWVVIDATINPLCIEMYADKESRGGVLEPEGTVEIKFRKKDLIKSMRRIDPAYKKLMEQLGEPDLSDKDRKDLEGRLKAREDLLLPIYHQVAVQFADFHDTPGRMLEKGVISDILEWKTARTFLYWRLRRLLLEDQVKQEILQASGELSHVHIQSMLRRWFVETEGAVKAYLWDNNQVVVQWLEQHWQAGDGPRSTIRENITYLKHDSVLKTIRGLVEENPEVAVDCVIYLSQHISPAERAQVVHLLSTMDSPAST

IC50	Compound
0.013 µM	CC(C)[Si](C(C)C)(C(C)C)n1cc(Cl)c2ccc(S(=O)(=O)N[C@H]3CC[C@H](C(=O)N[C@H](C)c4ccc(F)cc4)CC3)cc21 [Example 116, (1r,4R)-4-(3-chloro-1-(triisopropylsilyl)-1H-indole-6-sulfonamido)-N-((R)-1-(4-fluorophenyl)ethyl)cyclohexanecarboxamide]
0.141 µM	CC(C)(C)c1nnc([C@H]2CC[C@H](NS(=O)(=O)c3ccc4[nH]c(-c5ccc(N6CCNCC6)cc5)nc4c3)CC2)o1 [Example 655, N-((1r,4r)-4-(5-tert-butyl-1,3,4-oxadiazol-2-yl)cyclohexyl)-2-(4-(piperazin-1-yl)phenyl)-1H-benzo[d]imidazole-5-sulfonamide]
0.304 µM	O=C([C@H]1CC[C@H](NS(=O)(=O)c2ccc3[nH]c(-c4ccccc4)nc3c2)CC1)N1CCOCC1 [Example 650, N-((1r,4r)-4-(morpholine-4-carbonyl)cyclohexyl)-2-phenyl-1H-benzo[d]imidazole-5-sulfonamide]
0.013 µM	C[C@@H](NC(=O)[C@H]1CC[C@H](NS(=O)(=O)c2ccc3c(c2)nc(-c2ccccc2)n3C)CC1)c1ccc(F)cc1 [Example 4, (1r,4R)—N—((R)-1-(4-fluorophenyl)ethyl)-4-(1-methyl-2-phenyl-1H-benzo[d]imidazole-5-sulfonamido)cyclohexanecarboxamide]
0.18 µM	C[C@@H](NC(=O)[C@H]1CC[C@H](NS(=O)(=O)c2ccc3cc(C4CCCC4)[nH]c3c2)CC1)c1ccc(F)cc1 [Example 304, (1r,4R)-4-(2-cyclopentyl-1H-indole-6-sulfonamido)-N-((R)-1-(4-fluorophenyl)ethyl)cyclohexanecarboxamide]
0.05 µM	C[C@@H](NC(=O)[C@H]1CC[C@H](NS(=O)(=O)c2ccc3c(c2)c(C#N)cn3C)CC1)c1ccc(F)cc1 [Example 88, (1r,4R)-4-(3-cyano-1-methyl-1H-indole-5-sulfonamido)-N-((R)-1-(4-fluorophenyl)ethyl)cyclohexanecarboxamide]
0.256 µM	CC(NC(=O)[C@H]1CC[C@H](NS(=O)(=O)c2ccc3[nH]c(-c4cccnc4)cc3c2)CC1)c1ccncc1 (stereo partly drawn) [Example 283, (1r,4r)-4-(2-(pyridin-3-yl)-1H-indole-5-sulfonamido)-N-(1-(pyridin-4-yl)ethyl)cyclohexanecarboxamide]
25.2 µM	CCOc1ccc2cc(S(=O)(=O)N[C@H]3CC[C@H](C(=O)N[C@H](COP(=O)(O)O)c4ccccc4)CC3)ccc2n1 [Example 269, (S)-2-((1r,4S)-4-(2-ethoxyquinoline-6-sulfonamido)cyclohexanecarboxamido)-2-phenylethyl dihydrogen phosphate]
0.019 µM	CCOC(=O)c1cccc(-c2nc3ccc(S(=O)(=O)N[C@H]4CC[C@H](C(=O)N[C@H](C)c5ccccc5)CC4)cc3[nH]2)c1 [Example 2, ethyl 3-(6-(N-((1R,4r)-4-((R)-1-phenylethylcarbamoyl)cyclohexyl)sulfamoyl)-1H-benzo[d]imidazol-2-yl)benzoate]
0.068 µM	C[C@@H](NC(=O)[C@H]1CC[C@H](NS(=O)(=O)c2cnc3c(c2)N(C2CC2)CCN3C)CC1)c1ccc(F)cc1 [Example 132, (1r,4R)-4-(1-cyclopropyl-4-methyl-1,2,3,4-tetrahydropyrido[3,2-b]pyrazine-7-surfonamido)-N-((R)-1-(4-fluorophenyl)ethyl)cyclohexanecarboxamide]
< 0.01 µM	Cn1c(-c2ccccc2)cc2ccc(S(=O)(=O)N[C@H]3CC[C@H](C(=O)N[C@@H](c4ccccc4)C(C)(C)CO)CC3)cc21 [Example 439, (1r,4S)-N-((S)-3-hydroxy-2,2-dimethyl-1-phenylpropyl)-4-(1-methyl-2-phenyl-1H-indole-6-sulfonamido)cyclohexanecarboxamide]
0.02 µM	C[C@@H](NC(=O)[C@H]1CC[C@H](NS(=O)(=O)c2ccc3c(Cl)c[nH]c3c2)CC1)c1ccc(F)cc1 [Example 26, (1r,4R)-4-(3-chloro-1H-indole-6-sulfonamido)-N—((R)-1-(4-fluorophenyl)ethyl)cyclohexanecarboxamide]
0.762 µM	COc1ccc(-c2nc3ccc(S(=O)(=O)Nc4ccc(C(=O)OC(C)C)cc4)cc3[nH]2)cc1 [Example 497, isopropyl 4-(2-(4-methoxyphenyl)-1H-benzo[d]imidazole-6-sulfonamido)benzoate]
0.047 µM	C[C@@H](NC(=O)[C@H]1CC[C@H](NS(=O)(=O)c2ccc3c(c2)NCCC3)CC1)c1ccc(F)cc1 [Example 151, (1r,4R)-N-((R)-1-(4-fluorophenyl)ethyl)-4-(1,2,3,4-tetrahydroquinoline-7-sulfonamido)cyclohexanecarboxamide]
< 0.01 µM	Cn1c(C2CC2)cc2ccc(S(=O)(=O)N[C@H]3CC[C@H](C(=O)N[C@@H](c4ccccc4)C(C)(C)C(=O)O)CC3)cc21 [Example 409, (S)-3-((1r,4S)-4-(2-cyclopropyl-1-methyl-1H-indole-6-sulfonamido)cyclohexanecarboxamido)-2,2-dimethyl-3-phenylpropanoic acid]
0.641 µM	CC(C)OC(=O)c1ccc(NS(=O)(=O)c2ccc3[nH]c(Nc4cccc(F)c4F)nc3c2)cc1 [Example 533, isopropyl 4-(2-(2,3-difluorophenylamino)-1H-benzo[d]imidazole-5-sulfonamido)benzoate]
1.21 µM	COc1ccc(-c2nc3ccc(S(=O)(=O)Nc4ccc(C(=O)OC(C)C)cc4)cc3[nH]2)cc1OC [Example 516, isopropyl 4-(2-(3,4-dimethoxyphenyl)-1H-benzo[d]imidazole-6-sulfonamido)benzoate]
0.321 µM	C[C@@H](NC(=O)[C@H]1CC[C@H](NS(=O)(=O)c2ccc3c(c2)ncn3C)CC1)c1ccc(F)cc1 [Example 109, (1r,4R)-N-((R)-1-(4-fluorophenyl)ethyl)-4-(1-methyl-1H-benzo[d]imidazole-5-sulfonamido)cyclohexanecarboxamide]
0.34 µM	Cn1c(-c2ccc(CCC(=O)O)cc2)cc2ccc(S(=O)(=O)N[C@H]3CC[C@H](C(=O)N4CCC[C@H]4C(C)(C)C)CC3)cc21 [Example 399, 3-(4-(6-(N-((1S,4r)-4-((S)-2-tert-butylpyrrolidine-1-carbonyl)cyclohexyl)sulfamoyl)-1-methyl-1H-indol-2-yl)phenyl)propanoic acid]
0.212 µM	C[C@@H]1CNc2ncc(S(=O)(=O)N[C@H]3CC[C@H](C(=O)N[C@H](C)c4ccc(F)cc4)CC3)cc2N1 [Example 172, (1R,4R)-N-((R)-1-(4-fluorophenyl)ethyl)-4-((R)-2-methyl-1,2,3,4-tetrahydropyrido[3,2-b]pyrazine-7-sulfonamido)cyclohexanecarboxamide]
< 0.01 µM	C[C@@H](NC(=O)[C@H]1CC[C@H](NS(=O)(=O)c2ccc3cc(-c4ccc(CO)cc4)[nH]c3c2)CC1)c1ccc(F)cc1 [Example 296, (1r,4R)-N-((R)-1-(4-fluorophenyl)ethyl)-4-(2-(4-(hydroxymethyl)phenyl)-1H-indole-6-sulfonamido)cyclohexanecarboxamide]
0.023 µM	COCCN(C(=O)[C@H]1CC[C@H](NS(=O)(=O)c2ccc3[nH]c(-c4ccccc4)nc3c2)CC1)C1CCCCC1 [Example 676, (1r,4R)-N-cyclohexyl-N-(2-methoxyethyl)-4-(2-phenyl-1H-benzo[d]imidazole-5-sulfonamido)cyclohexanecarboxamide]
0.76 µM	CCOC(=O)C1(C)CCC(NS(=O)(=O)c2ccc3c(ccn3C)c2)CC1 (stereo not drawn) [Example 391, ethyl 1-methyl-4-(1-methyl-1H-indole-5-sulfonamido)cyclohexanecarboxylate]
< 0.01 µM	C[C@@H](NC(=O)[C@H]1CC[C@H](NS(=O)(=O)c2ccc3[nH]c(-c4ccccc4)nc3c2)CC1)c1ccc(F)cc1 [Example 611, (1r,4R)-N-((R)-1-(4-fluorophenyl)ethyl)-4-(2-phenyl-1H-benzo[d]imidazole-5-sulfonamido)cyclohexanecarboxamide]
0.02 µM	C[C@@H](NC(=O)[C@H]1CC[C@H](NS(=O)(=O)c2ccc3nc(-c4ccccc4)ccc3c2)CC1)c1ccc(F)cc1 [Example 202, (1r,4R)-N-((R)-1-(4-fluorophenyl)ethyl)-4-(2-phenylquinoline-6-sulfonamido)cyclohexanecarboxamide]
0.077 µM	CC(C)OC(=O)c1ccc(NS(=O)(=O)c2ccc3[nH]c(Nc4cccc([N+](=O)[O-])c4)nc3c2)cc1 [Example 538, isopropyl 4-(2-(3-nitrophenylamino)-1H-benzo[d]imidazole-5-sulfonamido)benzoate]
0.075 µM	[2H]C1([2H])Nc2cc(S(=O)(=O)NC3CCC(C(=O)N[C@H](C)c4ccc(F)cc4)CC3)cnc2NC1([2H])[2H] (stereo partly drawn) [Example 199, (R)-N-(1-(4-fluorophenyl)ethyl)-4-(2,2,3,3-tetradeuterio-1,2,3,4-tetrahydropyrido[3,2-b]pyrazine-7-sulfonamido)cyclohexanecarboxamide]
< 0.01 µM	Cn1c(-c2ccc(CCC(=O)O)cc2)cc2ccc(S(=O)(=O)N[C@H]3CC[C@H](C(=O)N4CCC[C@@H]4C(F)(F)F)CC3)cc21 [Example 397, 3-(4-(1-methyl-6-(N-((1R,4r)-4-((R)-2-(trifluoromethyl)pyrrolidine-1-carbonyl)cyclohexyl)sulfamoyl)-1H-indol-2-yl)phenyl)propanoic acid]
0.12 µM	C[C@@H](NC(=O)[C@H]1CC[C@H](NS(=O)(=O)c2ccc3cc(-c4ccccc4C(F)(F)F)[nH]c3c2)CC1)c1ccc(F)cc1 [Example 329, (1r,4R)-N-((R)-1-(4-fluorophenyl)ethyl)-4-(2-(2-(trifluoromethyl)phenyl)-1H-indole-6-sulfonamido)cyclohexanecarboxamide]
< 0.01 µM	CC(C)[C@H]1COCCN1C(=O)[C@H]1CC[C@H](NS(=O)(=O)c2ccc3cc(-c4ccccc4)[nH]c3c2)CC1 [Example 463, N-((1S,4r)-4-((S)-3-isopropylmorpholine-4-carbonyl)cyclohexyl)-2-phenyl-1H-indole-6-sulfonamide]
